Laboratory results: patent US20250195508A1, “COMPOUNDS AND COMPOSITIONS FOR ANITMALARIAL THERAPEUTIC AND PROPHYLACTIC USE” (UNIVERSITY OF CENTRAL FLORIDA RESEARCH FOUNDATION, INC., priority 2022, published 2025)

Key:
Type in all cases: cell-based
[1] = tested on: P. berghei luciferase expressing parasites; assay: Liver stage assay with luciferase expressing parasites; conditions: Plasmodium berghei, read-out: Liver Stage EC50 (nM) ± SD
Experimental: (§1) P. falciparum Dd2 EC50 was determined using SYBR Green I assay. For the selectivity index ([…]) cytotoxicity was determined using CellTiter 96® AQueous MTS. The liver stage assay was performed using P. berghei luciferase expressing parasites. All assays were performed with technical quadruplicates and 3 biological replicates. Assays have a Z′ factor >0.7.

[2] = tested on: HepG2 human liver cell; assay: CellTiter 96 AQueous MTS cytotoxicity counter-screen (selectivity index)
Experimental: (§2) To establish the utility of kinase inhibitor compounds synthesized in the Gray laboratory as a source of novel antimalarial activities, the libraries (containing 1,100 compounds) were screened using the well-established SYBR Green I-based fluorescence assay as known in the art. This screen yielded 34 compounds with EC50<500 nM in the CQ^R Dd2 strain. These hits were subjected to counter-screening against human HepG2 cells using CellTiter 96® AQueous (Promega™) MTS-based cell proliferation assay to identify asexual and liver stage antiplasmodial hits.
as §1

[3] = tested on: P. falciparum Dd2; assay: 72 h SYBR Green I assay (Dd2 Proliferation Assay); conditions: Plasmodium falciparum, DD2; SYBR Green I assay; Table 4; read-out: PfDd2 EC50 (nM) ± SD
Experimental: Several analogs were synthesized based on the structure of TL5-135 for further study. […] For the data in Table 1, compounds were subjected to in vitro biochemical kinase assays done using recombinant human ephrin type-A receptor 2 (EPHA2) (expressed in insect cells) in a Z′-LYTE® FRET-based kinase assay. P. falciparum Dd2 EC50 was determined using the standard 72 hour SYBR Green I assay (Dd2 Proliferation Assay) as known in the art. […] The structures of compoundsTL5-134, TL5-139, and TL5-145 are shown below.
In vitro biochemical kinase assays were done using recombinant human EPHA2 (expressed in insect cells) in a Z′-LYTE® FRET-based kinase assay. P. falciparum Dd2 EC50 was determined using the standard 72 h SYBR Green I assay.
Asynchronous blood stage P. falciparum Dd2 cultures were plated at 1% parasitemia and 1% hematocrit in a 96-well plate and incubated with serial dilutions of compound for 72 hours at 37° C. in 5% CO2. DMSO concentrations were kept at a sub-lethal percentage (<0.2%). Five micromolar chloroquine was used as a negative parasite growth control. Plates were then frozen at −80° C. and thawed, and 100 μL SYBR Green I-containing lysis buffer (20 mM Tris-HCl, 5 mM EDTA, 0.8% Triton X-100, 0.08% saponin, and 0.0001% SYBR Green I) was added to the wells. After incubation for 45 minutes at room temperature protected from light, fluorescence emission was read with a multimode microplate reader, at 485 nm excitation and 530 nm emission. Results were normalized using untreated and chloroquine-treated controls, and EC50 was determined with CDD Vault.
as §2, §1

For CCN1CCN(Cc2ccc(NC(=O)c3cc(Cl)cc(NC(=O)c4cncc(-c5cccs5)c4)c3)cc2C(F)(F)F)CC1 [TL5-135], the EC50 [1] was 108 ± 35 nM, the “Selectivity Index (SI)” value [2] was 116 and the EC50 [3] was 80 ± 8 nM.
